US11560366B2, “Bicyclo[1.1.1]pentane inhibitors of dual leucine zipper (DLK) kinase for the treatment of disease” (Board of Regents, The University of Texas System, priority 2019, dated 2023)
Where two headings read alike, the source gives them in different places.

Legend:
human DLK = human DLK (Homo sapiens (Human), UniProt Q12852); assay: DLK Kd determination (KINOMEscan KdELECT, DiscoveRx); assay type: binding
Procedure: The DLK dissociation constants (Kd) have been determined in the KINOMEscan KdELECT Service at DiscoveRx.
A fusion protein of full length of human DLK (amino acids 1-859) and the DNA binding domain of NFkB was expressed in transiently transfected HEK293 cells. From these HEK 293 cells, extracts were prepared in M-PER extraction buffer (Pierce) in the presence of Protease Inhibitor Cocktail Complete (Roche) and Phosphatase Inhibitor Cocktail Set II (Merck) per manufacturers' instructions. The DLK fusion protein was labeled with a chimeric double-stranded DNA tag containing the NFkB binding site (5′-[sequence]-3′, SEQ ID NO:1) fused to an amplicon for qPCR readout, which was added directly to the expression extract (the final concentration of DNA-tag in the binding reaction is 0.1 nM).
The liganded beads were blocked with excess biotin and washed with blocking buffer (SeaBlock (Pierce), 1% BSA, 0.05% Tween 20, 1 mM DTT) to remove unbound ligand and to reduce nonspecific binding.
Extracts were used directly in binding assays without any enzyme purification steps at a >10,000-fold overall stock dilution (final DNA-tagged enzyme concentration <0.1 nM). Extracts were loaded with DNA-tag and diluted into the binding reaction in a two step process. First extracts were diluted 1:100 in 1× binding buffer (PBS/0.05% Tween 20/10 mM DTT/0.1% BSA/2 μg/ml sonicated salmon sperm DNA) containing 10 nM DNA-tag. This dilution was allowed to equilibrate at room temperature for 15 minutes and then subsequently diluted 1:100 in 1× binding buffer. Test compounds were prepared as 111× stocks in 100% DMSO. Kds were determined using an 11-point 3-fold compound dilution series with three DMSO control points. […] The compounds were then diluted directly into the assays such that the final concentration of DMSO was 0.9%. All reactions performed in polypropylene 384-well plates. Each was a final volume of 0.02 mL. Assays were incubated with shaking for 1 hour at room temperature. Then the beads were pelleted and washed with wash buffer (1×PBS, 0.05% Tween 20) to remove displaced kinase and test compound. […] The kinase concentration in the eluates was measured by qPCR. qPCR reactions were assembled by adding 2.5 μL of kinase eluate to 7.5 μL of qPCR master mix containing 0.15 μM amplicon primers and 0.15 μM amplicon probe.
Test compounds were prepared as 111× stocks in 100% DMSO. Kds were determined using an 11-point 3-fold compound dilution series with three DMSO control points. […] The compounds were then diluted directly into the assays such that the final concentration of DMSO was 0.9%. The Kds were determined using a compound top concentration of 30,000 nM. Kd measurements were performed in duplicate.
Binding constants (Kds) were calculated with a standard dose-response curve using the Hill equation:
The Hill Slope was set to −1.

[1] = Metabolic stability in liver microsomes, human; assay type: in vitro ADME; details: 0.5 mg/mL microsomes, NADPH, 45 minutes, 37° C., read-out: Half-life in liver microsomes (t1/2, minutes)
Procedure: (§1) The test compound was incubated with liver microsomes (0.5 mg/mL) from CD-1 mouse, Sprague Dawley rat, Beagle dog, Cynomolgus monkey, and human in the presence of NADPH for 45 minutes at 37° C. The % parent remaining over time was determined by LC-MS/MS, using peak area ratios. Half-life (t1/2) was calculated using the following equation: t1/2=ln2/k, where k is the rate constant of parent decay over time (slope of the plot of log[% parent remaining] versus time).

[2] = Metabolic stability in liver microsome preparations, overall comparison; assay type: in vitro ADME; details: relative to comparator compounds 13 or 14/14b (WO2018207072)
Procedure: as §1

[3] = Mouse pharmacokinetics, single dose; assay type: in vivo, male C57BL/6 mice; details: for Kp / unbound brain-to-plasma ratio (Kp,uu): brain and plasma, po, 10 mg/kg, based on AUC; for Kp / unbound brain-to-plasma ratio (Kp,uu) / AUC(0-t) / Cmax / bioavailability: oral dose 10 mg/kg; for Kp: read-out: Brain/Plasma Ratio; for unbound brain-to-plasma ratio (Kp,uu): read-out: Free Brain/Plasma Ratio; for clearance / half-life / Vd: in vivo; for Vd: read-out: Vss; for AUC(0-t) / Cmax / bioavailability: plasma; for clearance in mice, comparison in words / half-life in mice, comparison in words: relative to comparator compounds 13 or 14b; for brain penetration, in words: relative to 13 and 14b and to 1a, 4b, 8a and 9b
[4] = Metabolic stability in liver microsomes, mouse; assay type: in vitro ADME, CD-1 mouse; details: CD-1, liver microsomes, 0.5 mg/mL microsomes, NADPH, 45 minutes, 37° C., read-out: Half-life in liver microsomes (t1/2, minutes)
Procedure: as §1

[5] = Metabolic stability in liver microsomes, monkey; assay type: in vitro ADME, Cynomolgus monkey; details: 0.5 mg/mL microsomes, NADPH, 45 minutes, 37° C., read-out: Half-life in liver microsomes (t1/2, minutes)
Procedure: as §1

[6] = Metabolic stability in liver microsomes, dog; assay type: in vitro ADME; details: Beagle, 0.5 mg/mL microsomes, NADPH, 45 minutes, 37° C., read-out: Half-life in liver microsomes (t1/2, minutes)
Procedure: as §1

[7] = Metabolic stability in liver microsomes, rat; assay type: in vitro ADME; details: Sprague Dawley, 0.5 mg/mL microsomes, NADPH, 45 minutes, 37° C., read-out: Half-life in liver microsomes (t1/2, minutes)
Procedure: as §1

[8] = Rat pharmacokinetics, single dose; assay type: in vivo, Wistar Han rats; details: rat, in vivo, Wistar Han rats
Procedure: Pharmacokinetics for compounds 13, 1a, and 9b were determined using single dosage of Wistar Han rats using techniques that are well known in the art.

[9] = male, C57BL/6, mouse, male C57BL/6 mice
[10] = mouse, male C57BL/6 mice, IV dose 0.3 mg/kg (1a, 4b, 13, 14b, 16; IV dose of 8a, 9b not stated)
[11] = full length human DLK fusion protein, qPCR readout, duplicate, read-out: Kd
[12] = male, C57BL/6, mouse, iv, 1 mg/kg

Chain of human DLK (Q12852 whole entry): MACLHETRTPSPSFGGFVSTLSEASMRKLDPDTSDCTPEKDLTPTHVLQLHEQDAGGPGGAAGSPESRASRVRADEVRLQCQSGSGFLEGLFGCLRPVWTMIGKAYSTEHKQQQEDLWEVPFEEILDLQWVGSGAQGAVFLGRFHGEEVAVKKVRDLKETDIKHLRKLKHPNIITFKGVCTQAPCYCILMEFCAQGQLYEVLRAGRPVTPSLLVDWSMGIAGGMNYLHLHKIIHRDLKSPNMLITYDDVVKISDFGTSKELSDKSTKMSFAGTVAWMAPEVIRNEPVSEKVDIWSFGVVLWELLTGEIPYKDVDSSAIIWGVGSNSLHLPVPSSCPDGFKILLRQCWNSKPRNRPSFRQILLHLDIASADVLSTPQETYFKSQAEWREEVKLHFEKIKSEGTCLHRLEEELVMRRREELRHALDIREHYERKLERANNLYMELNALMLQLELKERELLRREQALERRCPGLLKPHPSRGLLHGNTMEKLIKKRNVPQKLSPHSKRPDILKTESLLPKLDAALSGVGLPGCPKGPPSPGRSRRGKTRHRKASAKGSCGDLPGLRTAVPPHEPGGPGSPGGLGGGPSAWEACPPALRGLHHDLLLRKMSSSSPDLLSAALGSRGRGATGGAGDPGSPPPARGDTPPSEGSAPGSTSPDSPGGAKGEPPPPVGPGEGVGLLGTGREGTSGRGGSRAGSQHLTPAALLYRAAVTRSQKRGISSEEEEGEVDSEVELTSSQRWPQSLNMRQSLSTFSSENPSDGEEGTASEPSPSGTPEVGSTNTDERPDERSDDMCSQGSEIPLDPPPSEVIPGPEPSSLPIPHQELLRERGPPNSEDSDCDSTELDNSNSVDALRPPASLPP

Row | SMILES | Kd (human DLK; read-out: Kd) [nM] | half-life [1] [min] | Kp [3, 9] | unbound brain-to-plasma ratio (Kp,uu) [3, 9] | clearance [3, 10] [mL/min/kg] | half-life [3, 10] [h] | Vd [3, 10] [L/kg] | AUC(0-t) ([3]; mouse, male C57BL/6 mice) [µM·h] | Cmax ([3]; mouse, male C57BL/6 mice) [µM] | bioavailability ([3]; mouse, male C57BL/6 mice) [%] | half-life [4] [min] | half-life [7] [min] | other results
1 | CC(C)[C@H](O)c1nc(-c2cnc(N)c(OC(F)(F)F)c2)cn1C12CC(F)(C1)C2 (single isomer, unassigned) [Example 3b] | 0.24 |  |  |  |  |  |  |  |  |  |  |  | 
2 | CC(C)[C@H](O)c1nc(-c2cnc(N)c(C(F)(F)F)c2)cn1C12CC(F)(C1)C2 (single isomer, unassigned) [Example 4b] | 0.29 | 213 | 1.72 | 1.06 | 24.5 | 1.86 | 3.3 | 8.67 | 5.42 | 49.2 | 71 | 30 | microsomal stability, comparison in words [2]: improvements to microsomal stability; clearance in mice, comparison in words [3]: reduced clearance; half-life in mice, comparison in words [3]: longer half-life; half-life [5]: 22 min; half-life [6]: 355 min
3 | CC(C)[C@@H](O)c1nc(-c2cnc(N)c(C(F)(F)F)c2)cn1C12CC(N3CCC(F)(F)CC3)(C1)C2 (single isomer, unassigned) [Example 7a] | 0.21 | 70 |  |  |  |  |  |  |  |  |  | 566 | 
4 | CC(C)[C@@H](O)c1nc(-c2cnc(N)c(OC(F)(F)F)c2)cn1C12CC(N3CCC(F)(F)CC3)(C1)C2 (single isomer, unassigned) [Example 8a] | 0.5 | 297 | 0.82 | 0.38 | 7 | 6.7 | 3.8 | 41.4 | 3.54 | 106 | 322 | 201 | 
5 | Nc1ncc(-c2cn(C34CC(N5CCC(F)(F)CC5)(C3)C4)c([C@@H](O)C(F)(F)F)n2)cc1C(F)(F)F (single isomer, unassigned) [Example 10a] | 0.62 |  |  |  |  |  |  |  |  |  |  |  | 
6 | Nc1ncc(-c2cn(C34CC(C3)C4)c([C@@H](O)C(F)(F)F)n2)cc1OC(F)(F)F [Compound 13, (R)-1-(4-(6-amino-5-(trifluoromethoxy)-pyridin-3-yl)-1-(bicyclo[1.1.1]pentan-1-yl)-1H-imidazol-2-yl)-2,2,2-trifluoroethan-1-ol, reference compound] |  | 121 | 2.97 | 1.54 | 14.1 | 3.53 | 4.6 | 14.4 | 1.95 | 51 | 221 | 77 | Kd (human DLK; [11]): 1.6 nM; half-life [5]: 56 min; half-life [6]: 109 min; clearance ([8]; IV dose 1 mg/kg): 12.1 mL/min/kg; half-life ([8]; IV dose 1 mg/kg): 9.94 h; Vd ([8]; IV dose 1 mg/kg, read-out: Vss): 7.9 L/kg; AUC(0-t) ([8]; oral dose 3 mg/kg): 7.59 µM·h; Cmax ([8]; oral dose 3 mg/kg): 0.909 µM; bioavailability ([8]; oral dose 3 mg/kg): 86.3%
7 | CC(C)C(O)c1nc(-c2cnc(N)c(C(F)(F)F)c2)cn1C12CC(C1)C2 (stereo not shown) [Compound 14, 1-(4-(6-amino-5-(trifluoromethyl)pyridin-3-yl)-1-(bicyclo[1.1.1]pentan-1-yl)-1H-imidazol-2-yl)-2-methylpropan-1-ol, reference compound] |  | 41 |  |  |  |  |  |  |  |  |  | 27 | Kd (human DLK; [11]): 0.3 nM
8 | CC(C)[C@H](O)c1nc(-c2cnc(N)c(C(F)(F)F)c2)cn1C12CC(C1)C2 [Compound 14b, (S)-1-(4-(6-amino-5-(trifluoromethyl)pyridin-3-yl)-1-(bicyclo[1.1.1]pentan-1-yl)-1H-imidazol-2-yl)-2-methylpropan-1-ol, reference compound] |  | 26 |  |  | 76.7 | 0.7 | 3.72 | 3.62 | 3.38 | 61.2 | 16 | 23 | Kd (human DLK; [11]): 0.12 nM; half-life [5]: 7 min; half-life [6]: 154 min
9 | CC(C)[C@H](O)c1nc(-c2cnc(N)c(OC(F)(F)F)c2)cn1C12CC(N3CCOCC3)(C1)C2 [Compound 15, (S)-1-(4-(6-amino-5-(trifluoromethoxy)pyridin-3-yl)-1-(3-morpholinobicyclo[1.1.1]pentan-1-yl)-1H-imidazol-2-yl)-2-methylpropan-1-ol, reference compound] |  | 80 | 0.24 | 0.16 |  |  |  |  |  |  | 1840 | 3000 | microsomal stability, comparison in words [2]: improved microsomal stability; clearance [3, 12]: 12 mL/min/kg; half-life [3, 12]: 5.4 h; Vd [3, 12]: 4.1 L/kg; brain penetration, in words ([3]; mouse): reduced brain penetration; clearance in mice, comparison in words [3]: reduced clearances; half-life in mice, comparison in words [3]: longer half-lives
10 | Nc1ncc(-c2cn(C34CC(N5CCOCC5)(C3)C4)c([C@@H](O)C(F)(F)F)n2)cc1OC(F)(F)F [Compound 16, (R)-1-(4-(6-amino-5-(trifluoromethoxy)pyridin-3-yl)-1-(3-morpholinobicyclo[1.1.1]pentan-1-yl)-1H-imidazol-2-yl)-2,2,2-trifluoroethan-1-ol, reference compound] |  | 260 | 0.21 | 0.16 | 4.4 | 5.2 | 1.8 | 70.3 | 11.9 | 92.1 | 1040 | 1500 | Kd (human DLK; [11]): 0.36 nM; microsomal stability, comparison in words [2]: improved microsomal stability; brain penetration, in words ([3]; mouse): reduced brain penetration; clearance in mice, comparison in words [3]: reduced clearances; half-life in mice, comparison in words [3]: longer half-lives
11 | Nc1ncc(-c2cn(C34CC(F)(C3)C4)c([C@H](O)C(F)(F)F)n2)cc1OC(F)(F)F [Example 1b, (S)-1-(4-(6-amino-5-(trifluoromethoxy)pyridin-3-yl)-1-(3-fluorobicyclo[1.1.1]pentan-1-yl)-1H-imidazol-2-yl)-2,2,2-trifluoroethanol] |  |  |  |  |  |  |  |  |  |  |  |  | Kd (human DLK): 120 nM
12 | Nc1ncc(-c2cn(C34CC(F)(C3)C4)c([C@@H](O)C(F)(F)F)n2)cc1C(F)(F)F [Example 2a, (R)-1-(4-(6-amino-5-(trifluoromethyl)pyridin-3-yl)-1-(3-fluorobicyclo[1.1.1]pentan-1-yl)-1H-imidazol-2-yl)-2,2,2-trifluoroethanol] | 4.4 |  |  |  |  |  |  |  |  |  |  |  | 
13 | Nc1ncc(-c2cn(C34CC(F)(C3)C4)c(C(O)C3CC3)n2)cc1OC(F)(F)F (stereo not shown) [Example 5, (4-(6-amino-5-(trifluoromethoxy)pyridin-3-yl)-1-(3-fluorobicyclo[1.1.1]pentan-1-yl)-1H-imidazol-2-yl)(cyclopropyl)methanol] | 5.2 |  |  |  |  |  |  |  |  |  |  |  | 
14 | Nc1ncc(-c2cn(C34CC(F)(C3)C4)c(C(O)C3CC3)n2)cc1C(F)(F)F (stereo not shown) [Example 6, (4-(6-amino-5-(trifluoromethyl)pyridin-3-yl)-1-(3-fluorobicyclo[1.1.1]pentan-1-yl)-1H-imidazol-2-yl)(cyclopropyl)methanol] | 7.7 |  |  |  |  |  |  |  |  |  |  |  | 
15 | Nc1ncc(-c2cn(C34CC(N5CCC(F)(F)CC5)(C3)C4)c(C(O)C3CC3)n2)cc1OC(F)(F)F (stereo not shown) [Example 11, (4-(6-amino-5-(trifluoromethoxy)pyridin-3-yl)-1-(3-(4,4-difluoropiperidin-1-yl)bicyclo[1.1.1]pentan-1-yl)-1H-imidazol-2-yl)(cyclopropyl)methanol] | 3.1 |  |  |  |  |  |  |  |  |  |  |  | 
16 | Nc1ncc(-c2cn(C34CC(N5CCC(F)(F)CC5)(C3)C4)c(C(O)C3CC3)n2)cc1C(F)(F)F (stereo not shown) [Example 12, (4-(6-amino-5-(trifluoromethyl)pyridin-3-yl)-1-(3-(4,4-difluoropiperidin-1-yl)bicyclo[1.1.1]pentan-1-yl)-1H-imidazol-2-yl)(cyclopropyl)methanol] | 2.9 |  |  |  |  |  |  |  |  |  |  |  | 
